This is an account of results in US6517836B1, “Nitrophenylaziridine compounds and their use as prodrugs” (Auckland Uniservices Limited, priority 1998, dated 2003).

Like-named read-outs stand apart in the source and are kept apart here. Some results are limits rather than exact numbers.

Series [1] relates to human ovarian carcinoma NR− line (SKOV3), wild-type. In words: Cytotoxicity, 18 h drug exposure, SKOV3 NR− line. The format is cell-based. As to conditions: SKOV3 cells, 18 h drug exposure, read-out: SKOV NR− IC50. The source says:
(§1) The Chinese hamster fibroblast NR− line (T78-1) is a V79/4 Chinese hamster fibroblast transfected with an empty shuttle vector, while the NR+ line (T79-A3) is the corresponding NR transfectant. The human colon carcinoma NR− line (WIDR) is wild-type, while the NR+ line (WC14 10) is the corresponding NR transfectant. The human ovarian carcinoma NR− line (SKOV3) is wild-type, while the NR+ line (SC3.2) is the corresponding NR transfectant. EMT6 is a mouse mammary carcinoma line, and EN2A is the NR-transformed counterpart.

Series [2] relates to human colon carcinoma NR− line (WIDR), wild-type. The series is described as follows: Cytotoxicity, 18 h drug exposure, WiDr NR− line. In kind it is cell-based. As to conditions: WIDR cells, 18 h drug exposure, read-out: WiDr NR− IC50.
From the text: as §1

In series [3] the test system is Chinese hamster fibroblast NR+ line (T79-A3), NR transfectant. The series is described as follows: Cytotoxicity, 18 h drug exposure, V79 NR+ line (T79-A3). The format is cell-based. The following applies: for IC50: T79-A3 cells, 18 h drug exposure, read-out: V-79 NR+ IC50; for V-79 ratio of IC50s: T78-1 vs T79-A3, inter-experiment average.
From the text: as §1

Series [4] relates to EMT6 mouse mammary carcinoma line. The series is described as follows: Cytotoxicity, 18 h drug exposure, EMT6 NR− line. The following applies: EMT6 cells, 18 h drug exposure, read-out: EMT6 NR− IC50. The format is cell-based.
From the text: as §1

Series [5] concerns Chinese hamster fibroblast NR− line (T78-1), V79/4 transfected with an empty shuttle vector. The series is described as follows: Cytotoxicity, 18 h drug exposure, V79 NR− line (T78-1). The format is cell-based. As to conditions: T78-1 cells, 18 h drug exposure, read-out: V-79 NR− IC50.
From the text: as §1

Series [6] concerns EN2A, NR-transformed counterpart of EMT6. In words: Cytotoxicity, 18 h drug exposure, EMT6 NR+ line (EN2A). In kind it is cell-based, mouse. The following applies: for EMT6 ratio of IC50s: EMT6 vs EN2A, inter-experiment average; for IC50: EN2A cells, 18 h drug exposure, read-out: EMT6 NR+ IC50.
From the text: as §1

Series [7] has as its system human colon carcinoma NR+ line (WC14 10), NR transfectant. In words: Cytotoxicity, 18 h drug exposure, WiDr NR+ line (WC14 10). The format is cell-based. As to conditions: for IC50: WC14 10 cells, 18 h drug exposure, read-out: WiDr NR+ IC50; for WiDr ratio of IC50s: WIDR vs WC14 10, inter-experiment average.
From the text: as §1

The subject of series [8] is human ovarian carcinoma NR+ line (SC3.2), NR transfectant. In words: Cytotoxicity, 18 h drug exposure, SKOV NR+ line (SC3.2). The format is cell-based. The following applies: for IC50: SC3.2 cells, 18 h drug exposure, read-out: SKOV NR+ IC50; for SKOV ratio of IC50s: SKOV3 vs SC3.2, inter-experiment average.
From the text: as §1

As a reminder, the melting point is the temperature of the solid-liquid transition. On to `NC(=O)c1cc([N+](=O)[O-])c(Cl)cc1N1CC1`, for which the melting point was determined as 155 °C.

On to `NC(=O)c1ccc(Cl)c([N+](=O)[O-])c1N1CC1`, for which the melting point turned out to be 216 °C.

The IC50 is the concentration that gives 50% inhibition. For `CS(=O)(=O)c1cc([N+](=O)[O-])c(N2CC2)cc1C(=O)NCC(O)CO` (centres unmarked) [Compound 10, 5-(aziridin-1-yl)-N-(2,3-dihydroxypropyl)-2-(methylsulfonyl)-4-nitrobenzamide], the IC50 in series [1] (Homo sapiens, SK-OV-3) was 920 µM; in [2] (Homo sapiens), 826 µM; in [3] (Cricetulus griseus, Fibroblast), 8.8 µM; in [4] (Mus musculus), 454 µM; in [5] (Cricetulus griseus) it was 641 µM; in [6] (Mus musculus, EMT6), 3.7 µM. Further, the IC50 was 26 µM in series [7] (Homo sapiens, WiDr) and 6.2 µM in series [8] (Homo sapiens). The “V-79 ratio of IC50s” value in series [3] came out at 87. The “EMT6 ratio of IC50s” value in series [6] was determined as 124. In series [7], the “WiDr ratio of IC50s” value worked out at 33. For the same compound, the “SKOV ratio of IC50s” value in series [8] was 159.

`NC(=O)c1cc([N+](=O)[O-])c(N2CC2)c([N+](=O)[O-])c1` [Compound 19, 4-(Aziridin-1-yl)-3,5-dinitrobenzamide] came in with a melting point of 228 to 231 °C. Further, the IC50 in series [1] (Homo sapiens, SK-OV-3) is greater than 20 µM. In addition, the IC50 in series [2] (Homo sapiens) was greater than 20 µM. Further, in [3] (Cricetulus griseus, Fibroblast), the 50% inhibitory concentration (IC50) is greater than 20 µM. The IC50 in series [4] (Mus musculus) is greater than 20 µM. For the same compound, the IC50 in series [5] (Cricetulus griseus) was greater than 20 µM. In addition, in series [6] (Mus musculus, EMT6), the concentration for half-maximal inhibition (IC50) is greater than 20 µM. For the same compound, in series [7] (Homo sapiens, WiDr), the IC50 was greater than 20 µM. Also, in series [8] (Homo sapiens), the IC50 was greater than 20 µM.

For the compound `O=C(NCCN1CCOCC1)c1cc(N2CC2)c([N+](=O)[O-])cc1[N+](=O)[O-]` [Compound 3, 5-(aziridin-1-yl)-N-[2-(4-morpholino)ethyl]-2,4-dinitrobenzamide], the IC50 came out at 494 µM in series [1]; 131 µM in series [2]; 0.15 µM in series [3]; 229 µM in series [4]; 571 µM in series [5]; 0.061 µM in [6]. The IC50 was determined as 0.72 µM in [7] and 0.45 µM in series [8]. Also, the “V-79 ratio of IC50s” value in series [3] turned out to be 4160. In addition, the “EMT6 ratio of IC50s” value in series [6] was 4505. In series [7], the “WiDr ratio of IC50s” value came out at 183. Moreover, the “SKOV ratio of IC50s” value in series [8] was 1100.

Consider `NC(=O)c1cc([N+](=O)[O-])cc([N+](=O)[O-])c1N1CC1` [Compound 14, 2-(aziridin-1-yl)-3,5-dinitrobenzamide], for which the IC50 in series [1] (Homo sapiens, SK-OV-3) amounted to 1700 µM; in [2] (Homo sapiens), 1080 µM; in series [3] (Cricetulus griseus, Fibroblast) it was 1.2 µM; in [4] (Mus musculus) it was 769 µM; in series [5] (Cricetulus griseus), 1080 µM; in series [6] (Mus musculus, EMT6), 1.3 µM. Also, the half-inhibitory concentration (IC50) in series [7] (Homo sapiens, WiDr) was determined as 13 µM; in series [8] (Homo sapiens), 6.1 µM. Further, the “V-79 ratio of IC50s” value in [3] is 864. The “EMT6 ratio of IC50s” value in series [6] is 626. Also, the “WiDr ratio of IC50s” value in [7] amounted to 85. In addition, the “SKOV ratio of IC50s” value in series [8] worked out at 280.
